{"source": "patent US4443436A", "about": "“C-20-Modified macrolide derivatives of the macrolide antibiotics tylosin, desmycosin, macrocin, and lactenocin” (Eli Lilly and Company, priority 1982, dated 1984)", "key": {"[1]": {"tested_on": "Staphylococcus aureus X1.1", "assay": "MIC, standard agar-dilution assay, Staphylococcus aureus X1.1", "format": "cell-based", "details": "Staphylococcus aureus X1.1; agar dilution"}, "[2]": {"tested_on": "Staphylococcus aureus V41", "assay": "MIC, standard agar-dilution assay, Staphylococcus aureus V41", "format": "cell-based", "details": "Staphylococcus aureus V41; penicillin-resistant strain; agar dilution"}, "[3]": {"tested_on": "Staphylococcus aureus X400", "assay": "MIC, standard agar-dilution assay, Staphylococcus aureus X400", "format": "cell-based", "details": "Staphylococcus aureus X400; methicillin-resistant strain; agar dilution"}, "[4]": {"tested_on": "Staphylococcus aureus S13E", "assay": "MIC, standard agar-dilution assay, Staphylococcus aureus S13E", "format": "cell-based", "details": "Staphylococcus aureus S13E; agar dilution"}, "[5]": {"tested_on": "Staphylococcus epidermidis EPI1", "assay": "MIC, standard agar-dilution assay, Staphylococcus epidermidis EPI1", "format": "cell-based", "details": "Staphylococcus epidermidis EPI1; agar dilution"}, "[6]": {"tested_on": "Staphylococcus epidermidis EPI2", "assay": "MIC, standard agar-dilution assay, Staphylococcus epidermidis EPI2", "format": "cell-based", "details": "Staphylococcus epidermidis EPI2; agar dilution"}, "[7]": {"tested_on": "Streptococcus pyogenes C203", "assay": "MIC, standard agar-dilution assay, Streptococcus pyogenes C203", "format": "cell-based", "details": "Streptococcus pyogenes C203; agar dilution"}, "[8]": {"tested_on": "Streptococcus pneumoniae Park I", "assay": "microbe, parasite or virus in culture", "format": "cell-based", "details": "Streptococcus pneumoniae Park I; agar dilution"}, "[9]": {"tested_on": "Streptococcus Group D X66", "assay": "MIC, standard agar-dilution assay, Streptococcus Group D X66", "format": "cell-based", "details": "Streptococcus Group D X66; agar dilution"}, "Streptococcus Group 9960": {"tested_on": "Streptococcus Group 9960", "assay": "MIC, standard agar-dilution assay, Streptococcus Group 9960", "format": "cell-based", "details": "Streptococcus Group 9960; agar dilution"}, "[10]": {"tested_on": "Haemophilus influenzae Holt", "assay": "MIC, standard agar-dilution assay, Haemophilus influenzae Holt", "format": "cell-based", "details": "Haemophilus influenzae Holt; ampicillin-sensitive strain; agar dilution"}, "[11]": {"tested_on": "Haemophilus influenzae R252", "assay": "MIC, standard agar-dilution assay, Haemophilus influenzae R252", "format": "cell-based", "details": "Haemophilus influenzae R252; ampicillin-resistant strain; agar dilution"}, "Staphylococcus aureus": {"tested_on": "Staphylococcus aureus", "assay": "MIC, broth-dilution microtiter test, Staphylococcus aureus", "format": "cell-based", "details": "broth-dilution microtiter", "source_text": "(§1) The MIC's in Table X were obtained using conventional broth-dilution microtiter tests."}, "Streptococcus bovis 80": {"tested_on": "Streptococcus bovis 80", "assay": "MIC, broth-dilution microtiter test, Streptococcus bovis 80", "format": "cell-based", "details": "Streptococcus bovis 80; broth-dilution microtiter", "source_text": "as §1"}, "[12]": {"tested_on": "Pasteurella multocida 17E", "assay": "MIC, broth-dilution microtiter test, Pasteurella multocida 17E", "format": "cell-based", "details": "Pasteurella multocida 17E; bovine isolate; broth-dilution microtiter", "source_text": "as §1"}, "[13]": {"tested_on": "Pasteurella multocida 60A", "assay": "MIC, broth-dilution microtiter test, Pasteurella multocida 60A", "format": "cell-based", "details": "Pasteurella multocida 60A; avian isolate; broth-dilution microtiter", "source_text": "as §1"}, "[14]": {"tested_on": "Pasteurella hemolytica 22C", "assay": "MIC, broth-dilution microtiter test, Pasteurella hemolytica 22C", "format": "cell-based", "details": "Pasteurella hemolytica 22C; broth-dilution microtiter", "source_text": "as §1"}, "Mycoplasma gallisepticum [15]": {"tested_on": "Mycoplasma gallisepticum", "assay": "MIC, broth-dilution microtiter test, Mycoplasma gallisepticum", "format": "cell-based", "details": "Mycoplasma gallisepticum; broth-dilution microtiter", "source_text": "as §1"}, "Mycoplasma synoviae": {"tested_on": "Mycoplasma synoviae", "assay": "MIC, broth-dilution microtiter test, Mycoplasma synoviae", "format": "cell-based", "details": "Mycoplasma synoviae; broth-dilution microtiter", "source_text": "as §1"}, "Mycoplasma hyorhinis": {"tested_on": "Mycoplasma hyorhinis", "assay": "MIC, broth-dilution microtiter test, Mycoplasma hyorhinis", "format": "cell-based", "details": "Mycoplasma hyorhinis; broth-dilution microtiter", "source_text": "as §1"}, "Mycoplasma hyopneumoniae": {"tested_on": "Mycoplasma hyopneumoniae", "assay": "MIC, broth-dilution microtiter test, Mycoplasma hyopneumoniae", "format": "cell-based", "details": "Mycoplasma hyopneumoniae; broth-dilution microtiter", "source_text": "as §1"}, "[16]": {"tested_on": "Streptococcus pyogenes C203", "assay": "In vivo protection of mice experimentally infected with S. pyogenes C203", "details": "mice, doses given 1 and 4 hours post-infection", "protocol": "The C-20 modified derivatives of this invention have shown in vivo antimicrobial activity against experimentally-induced infections in laboratory animals. When two doses of test compound were administered to mice experimentally infected with S. pyogenes C203, the activity observed was measured as an ED50 value [effective dose in mg/kg to protect 50% of the test animals: see Warren Wick, et al., J. Bacteriol. 81, 233-235 (1961)]."}, "Pasteurella multocida [17]": {"tested_on": "Pasteurella multocida", "assay": "Subcutaneous treatment of Pasteurella multocida-infected chicks", "format": "in vivo, one-day-old chicks", "details": "30 mg/kg × 2, 1 and 4 hours post-challenge", "procedure,_shortened": "(§2)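 One-day-old chicks challenged subcutaneously with 0.1 ml of a 10^-4 dilution of a 20-hour tryptose broth culture of avian P. multocida. Compounds given by subcutaneous injection at 30 mg/kg 1 and 4 hours post-challenge, or by oral gavage 1 and 5 hours post-challenge.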"}, "Pasteurella multocida [18]": {"tested_on": "Pasteurella multocida", "assay": "Oral (gavage) treatment of Pasteurella multocida-infected chicks", "format": "in vivo, one-day-old chicks", "procedure,_shortened": "as §2"}, "Mycoplasma gallisepticum [19]": {"tested_on": "Mycoplasma gallisepticum", "assay": "Antimycoplasmal activity in chicks infected with Mycoplasma gallisepticum", "format": "in vivo, two- to three-day-old chicks", "details": "gavage five times, equivalent to 0.5 g/gal", "protocol": "In these tests infections were induced in chicks by injecting 0.2 ml of a broth culture of M. gallisepticum into the abdominal air sac of two- to three-day-old chicks. The compounds were administered by gavage five times at a dose equivalent to 0.5 g/gal (on the day of challenge once prior to and once following the challenge, two times on the next day and once on the third day). Twenty-one days post-infection, the chicks were weighed, a blood sample was taken, and the chicks were sacrificed. The presence or absence of air-sac lesions was recorded."}, "[20]": {"assay": "Plasma level after oral administration to dogs", "details": "female mongrel dogs; single 15 mg/kg oral dose"}}}
{"smiles": "CC[C@H]1OC(=O)C[C@@H](O)[C@H](C)[C@@H](O[C@@H]2O[C@H](C)[C@H](O)[C@H](N(C)C)[C@H]2O)[C@@H](CCOc2ccccc2)C[C@@H](C)C(=O)/C=C/C(C)=C/[C@@H]1COC1O[C@H](C)[C@@H](O)[C@@H](OC)[C@H]1OC", "note": "(stereo partly shown) [Compound 33, 20-DH-20-O-Phenyldesmycosin]", "values": [{"measurement": "MIC", "setting": "[1]", "result": 0.25, "unit": "µg/mL"}, {"measurement": "MIC", "setting": "[2]", "result": 0.25, "unit": "µg/mL"}, {"measurement": "MIC", "setting": "[3]", "result": 0.25, "unit": "µg/mL"}, {"measurement": "MIC", "setting": "[4]", "result": 0.25, "unit": "µg/mL"}, {"measurement": "MIC", "setting": "[5]", "result": 0.25, "unit": "µg/mL"}, {"measurement": "MIC", "setting": "[6]", "result": 0.12, "unit": "µg/mL"}, {"measurement": "MIC", "setting": "[7]", "result": 2, "unit": "µg/mL"}, {"measurement": "MIC", "setting": "[8]", "result": 2, "unit": "µg/mL"}, {"measurement": "MIC", "setting": "[9]", "result": 8, "unit": "µg/mL"}, {"measurement": "MIC", "setting": "Streptococcus Group 9960", "result": 16, "unit": "µg/mL"}, {"measurement": "MIC", "setting": "[10]", "result": 32, "unit": "µg/mL"}, {"measurement": "MIC", "setting": "[11]", "result": 32, "unit": "µg/mL"}, {"measurement": "MIC", "setting": "Staphylococcus aureus", "result": 0.39, "unit": "µg/mL"}, {"measurement": "MIC", "setting": "Streptococcus bovis 80", "result": 6.25, "unit": "µg/mL"}, {"measurement": "MIC", "setting": "[12]", "result": 12.5, "unit": "µg/mL"}, {"measurement": "MIC", "setting": "[13]", "result": 12.5, "unit": "µg/mL"}, {"measurement": "MIC", "setting": "[14]", "result": 25, "unit": "µg/mL"}, {"measurement": "MIC", "setting": "Mycoplasma gallisepticum [15]", "result": 0.39, "unit": "µg/mL"}, {"measurement": "MIC", "setting": "Mycoplasma synoviae", "result": 1.56, "unit": "µg/mL"}, {"measurement": "MIC", "setting": "Mycoplasma hyorhinis", "result": 25, "unit": "µg/mL"}, {"measurement": "MIC", "setting": "Mycoplasma hyopneumoniae", "result": 25, "unit": "µg/mL"}, {"measurement": "ED50, Oral", "setting": "[16]; oral", "result": 9, "unit": "mg/kg × 2"}, {"measurement": "ED50, Subcutaneous", "setting": "[16]; subcutaneous", "result": 1.5, "unit": "mg/kg × 2"}, {"measurement": "Number of Deaths/Number Treated", "setting": "Pasteurella multocida [17]", "result": "10/10"}, {"measurement": "Number of Deaths/Number tested", "setting": "Pasteurella multocida [18]; 1.0 g/gal equivalent", "result": "9/9"}, {"measurement": "Number of Deaths/Number tested", "setting": "Pasteurella multocida [18]; 2.0 g/gal equivalent", "result": "3/9"}, {"measurement": "Number of Deaths/Number tested", "setting": "Pasteurella multocida [18]; 2.0 g/gal equivalent, 13/20 infected nonmedicated chicks died in this test", "result": "7/10"}, {"measurement": "Number with Antibodies/Number Tested", "setting": "Mycoplasma gallisepticum [19]; antibodies to M. gallisepticum, 21 days post-infection", "result": "10/10"}, {"measurement": "Mortality", "setting": "Mycoplasma gallisepticum [19]", "result": "0/10"}, {"measurement": "Number with Air-Sac Lesions/Number Treated", "setting": "Mycoplasma gallisepticum [19]; 21 days post-infection", "result": "2/10"}, {"measurement": "peak plasma level", "setting": "[20]", "result": 2.1, "unit": "µg/mL"}]}
